Columns and labels:
Experiment in all cases: relative viability (nuclei count vs DMSO), 5 days (fraction); higher = more cells survive
Motesanib + Crizotinib = compound: CC1(C)CNc2cc(NC(=O)c3cccnc3NCc3ccncc3)ccc21 [Motesanib] + C[C@@H](Oc1cc(-c2cnn(C3CCNCC3)c2)cnc1N)c1c(Cl)ccc(F)c1Cl [Crizotinib] (partner 1 µM)
In short: (§1)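 Dosing by pin tool came one day after lung cancer cell lines were seeded in 1536-well plates, using either one drug or a fixed anchor-drug dose plus five library-drug doses (not always all listed) in √10 steps. After 5 days, nuclei were counted on 4× images. Relative viability is treated-well nuclei count divided by vehicle-well nuclei count, and values are medians of duplicate plates.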

Motesanib + Pemetrexed = compound: CC1(C)CNc2cc(NC(=O)c3cccnc3NCc3ccncc3)ccc21 [Motesanib] + Nc1nc2[nH]cc(CCc3ccc(C(=O)N[C@@H](CCC(=O)O)C(=O)O)cc3)c2c(=O)[nH]1 [Pemetrexed] (partner 0.2 µM)
In short: as §1

Motesanib + Luminespib = compound: CC1(C)CNc2cc(NC(=O)c3cccnc3NCc3ccncc3)ccc21 [Motesanib] + CCNC(=O)c1noc(-c2cc(C(C)C)c(O)cc2O)c1-c1ccc(CN2CCOCC2)cc1 [Luminespib] (partner 0.01 µM)
In short: as §1

[1] = compound: C[C@@]1(C(=O)Nc2ccc(F)nc2)CCCN1c1nc(Nc2cc(C3CC3)n[nH]2)c2cccn2n1 + COc1cccc2cc(-c3nc([C@H]4CC[C@H](C(=O)O)CC4)n4ncnc(N)c34)[nH]c12 [OSI-027] (partner 0.5 µM)
In short: as §1

Cell Line	relative viability (Motesanib + Crizotinib; first compound 0.01 µM)	relative viability (Motesanib + Crizotinib; first compound 0.03162 µM)	relative viability (Motesanib + Crizotinib; first compound 0.1 µM)	relative viability (Motesanib + Crizotinib; first compound 0.3162 µM)	relative viability (Motesanib + Crizotinib; first compound 1 µM)	relative viability (Motesanib + Pemetrexed; first compound 0.01 µM)	relative viability (Motesanib + Pemetrexed; first compound 0.03162 µM)	relative viability (Motesanib + Pemetrexed; first compound 0.1 µM)	relative viability (Motesanib + Pemetrexed; first compound 0.3162 µM)	relative viability (Motesanib + Pemetrexed; first compound 1 µM)	relative viability (Motesanib + Luminespib; first compound 0.01 µM)	relative viability (Motesanib + Luminespib; first compound 0.03162 µM)	relative viability (Motesanib + Luminespib; first compound 0.1 µM)	relative viability (Motesanib + Luminespib; first compound 0.3162 µM)	relative viability (Motesanib + Luminespib; first compound 1 µM)	relative viability ([1]; first compound 0.04 µM)	relative viability ([1]; first compound 0.1265 µM)	relative viability ([1]; first compound 0.4 µM)	relative viability ([1]; first compound 1.265 µM)
NCI-H441	0.596	0.785	1.02	0.846	0.803	0.243	0.234	0.238	0.259	0.196	0.274	0.314	0.333	0.302	0.269	0.405	0.322	0.313	0.328
NCI-H460	0.935	0.75	0.945	0.927	0.902	0.0586	0.0647	0.0699	0.0738	0.0745	0.0344	0.0382	0.0342	0.0458	0.0311	0.538	0.252	0.29	0.313
NCI-H520	0.665	0.792	0.697	0.662	0.725	0.577	0.594	0.51	0.586	0.643	0.22	0.276	0.27	0.196	0.242	0.328	0.297	0.257	0.22
NCI-H596	0.937	0.884	0.958	1.12	1.05	0.509	0.503	0.444	0.306	0.358	1.17	0.917	1.07	0.988	0.871	0.63	0.557	0.555	0.793
NCI-H647	1	1.06	1.2	1.19	0.964	0.178	0.175	0.16	0.143	0.165	0.122	0.144	0.387	0.165	0.216	0.574	0.404	0.484	0.734
NCI-H650	0.774	0.685	0.874	0.71	0.522	0.853	0.942	0.803	0.956	0.859	0.788		0.81	0.837	0.801	0.459	0.214	0.306	0.289
NCI-H661		0.945	1.09	0.978	1.1	0.862	0.925	0.887	0.986	0.961	0.912	0.968	0.948	0.952	0.901	0.592	0.564	0.249	0.529
NCI-H838	0.908	0.856	0.903	0.899	0.878	0.23	0.248	0.26	0.231	0.239	0.316	0.295	0.355	0.286	0.216	0.362	0.192	0.182	0.28
NCI-H1355	1.12	1.14	0.994	1.07	1.05	1.06	1.04	1.05	1.07	0.991	0.719	0.659	0.658	0.77	0.637	0.272	0.236	0.21	0.251
NCI-H1437	0.888	0.996	0.963	0.95	1.05	0.297	0.286	0.318	0.32	0.297	1.13	1.07	1.08	1.1	1.15	0.703	0.272	0.208	0.205
NCI-H1563	0.867	0.855	0.906	0.804	0.914	0.679	0.82	0.871	0.644	0.794	0.523	0.504	0.54	0.542	0.487	0.721	0.599	0.609	0.631
NCI-H1650	0.91		0.975	0.93	1.02	0.357	0.367	0.33	0.349	0.425	0.181	0.179	0.185	0.19	0.2	0.546	0.49	0.442	0.374
NCI-H1651	0.836	0.835	0.786	0.912	0.838	0.544	0.618	0.519	0.531	0.585	0.673	0.89	0.8	0.921	0.892	0.658	0.525	0.423	0.501
NCI-H1666	1.02	1.06	0.949	0.958	1.03	0.954	0.831	0.816	0.868	0.824	1.05	0.978	0.991	0.999	0.977	0.611	0.488	0.568	0.426
NCI-H1734	0.685	0.645	0.654	0.68	0.673	0.408	0.386	0.333	0.272	0.265	0.161	0.188		0.199	0.201	0.42	0.29	0.268	0.293
